Data published in patent US12064502B2, “Peptide exhibiting wrinkle-improving activity and uses thereof” (CAREGEN CO., LTD., priority 2017, dated 2024).
Several values for one entry are separate records, joined by “and”; a condition that tells them apart may be missing. Equal values may be shown once.

Tests used:
[1] = system: collagen1a, fibronectin, elastin mRNA; assay: RT-PCR of collagen1a, fibronectin and elastin in fibroblasts; assay type: cell-based, mouse; conditions: 10 μM or 50 μM, NIH3T3, 24 hours
Method: Mouse fibroblast NIH3T3 was seeded in a 6-well plate at a density of 5×10^3 cells/well, and then cultured overnight. Subsequently, the media were changed to 0.05% FBS-containing media, followed by culturing for 4 hours. Then, treatment with the positive control, i.e., 100 nM IGF-1, and 10 μM or 50 μM of the peptide consisting of an amino acid sequence of SEQ ID NO: 1, 2, 3, or 4 were performed and cultured for 24 hours. Then, the cells were cultured and collected to isolate RNA. cDNA was synthesized using a cDNA synthesis kit (Intron, Korea) after quantification of RNA, and PCR was carried out using primers of each of PCR premix (Intron, Korea) and collagen1a, fibronectin, elastin, GAPDH in Table 4. Then, the cells were run on 5% agarose gel, and degrees of mRNA expression of the growth factors were compared in each peptide treatment condition.

Mouse fibroblast NIH3T3 = assay: Promotion of proliferation of fibroblasts (MTT assay); assay type: cell-based; conditions: NIH3T3, 3 days; for Fibroblast proliferation (result in words): 10 μM or 50 μM; for Fibroblast proliferation (%): MTT, control = 100
Method: Mouse fibroblast NIH3T3 was seeded in a 96-well plate at a density of 5×10^3 cells/well, and then cultured overnight. Subsequently, the media were changed to 0.05% serum-containing media. Then, treatment with the positive control, i.e., 100 nM bFGF, and 10 μM or 50 μM of the peptide consisting of an amino acid sequence of SEQ ID NO: 1, 2, 3, or 4 were performed and cultured for 3 days. Then, 4 mg/mL MTT solution treatment was performed, and the reaction was carried out for 4 hours. Then, the resulting formazan was dissolved by treatment with dimethyl sulfoxide (hereinafter referred to as “DMSO”), and the absorbance at 560 nm was measured using a microplate reader.

[2] = system: MAPK (ERK, p38, and JNK) and AKT; assay: Phosphorylation level of MAPK and AKT in fibroblasts (western blotting); assay type: cell-based, mouse; conditions: 10 μM or 50 μM, NIH3T3, 30 minutes
Method: Mouse fibroblast NIH3T3 was seeded in a 6-well plate at a density of 5×10^3 cells/well, and then cultured overnight. Subsequently, the media were changed to 0.05% FBS-containing media. Then, treatment with the positive control, i.e., 100 nM bFGF, and 10 μM or 50 μM of the peptide consisting of an amino acid sequence of SEQ ID NO: 1, 2, 3, or 4 were performed and cultured for 30 minutes. Then, the cells were collected to prepare cell lysate. Then, western blotting was performed using P-MAPK (p-Erk, p-JNK, p-p38) and p-Akt or actin antibody (Santacruz Biotechnology, USA).

HA = HA ELISA; assay type: cell-based, human; conditions: 72 hours; for HA expression: HaCaT medium, control 251
Method: Human keratinocyte HaCaT was seeded in a 6-well plate at a density of 3×10^5 cells/well, and then cultured overnight. The media were changed to 0.05% FBS-containing media, followed by culturing for 4 hours. Then, treatment with the positive control, i.e., 100 nM IGF-1, and the peptide consisting of an amino acid sequence of SEQ ID NO: 2 were performed and cultured for 72 hours. Then, the media were collected. An HA ELISA kit (Echelon, USA) was used to measure an amount thereof.

Human keratinocyte HaCaT = assay: Promotion of proliferation of keratinocytes (MTT assay); assay type: cell-based; conditions: 3 days, control = 100
Method: Human keratinocyte HaCaT was seeded in a 6-well plate at a density of 3×10^5 cells/well, and then cultured overnight. Subsequently, the media were changed to 0.05% serum-containing media. Then, treatment with the positive control, i.e., 10 nM EGF, and 10 μM or 50 μM of the peptide consisting of an amino acid sequence of SEQ ID NO: 1, 2, 3, or 4 were performed and cultured for 3 days. Then, 4 mg/mL MTT solution treatment was performed, and the reaction was carried out for 4 hours. Then, the resulting formazan was dissolved by treatment with dimethyl sulfoxide (hereinafter referred to as “DMSO”), and the absorbance at 560 nm was measured using a microplate reader.

AQP3 = assay: RT-PCR of AQP3 (Aquaporin3) and SIRT1 in keratinocytes; assay type: cell-based, human; conditions: 10 μM or 50 μM, HaCaT, 24 hours
Method: Human keratinocyte HaCaT was seeded in a 6-well plate at a density of 3×10^5 cells/well, and then cultured overnight. Subsequently, the media were changed to 0.05% FBS-containing media, followed by culturing for 4 hours. Then, treatment with the positive control, i.e., 100 nM EGF, and 10 μM or 50 μM of the peptide consisting of an amino acid sequence of SEQ ID NO: 1 or 2 were performed and cultured for 24 hours. Then, the cells were cultured and collected to isolate RNA. cDNA was synthesized using a cDNA synthesis kit (Intron, Korea) after quantification of RNA, and PCR was carried out using primers of each of PCR premix (Intron, Korea) and AQP3, SIRT1, and GAPDH in Table 5. Then, the cells were run on 5% agarose gel, and degrees of mRNA expression of the growth factors were compared in each peptide treatment condition.

ERK and p38 = assay: Phosphorylation level of MAPK and AKT in keratinocytes (western blotting); assay type: cell-based, human; conditions: 10 μM or 50 μM, HaCaT, 30 minutes
Method: Human keratinocyte HaCaT was seeded in a 6-well plate at a density of 3×10^5 cells/well, and then cultured overnight. Subsequently, the media were changed to 0.05% FBS-containing media. Then, treatment with the positive control, i.e., 10 nM EGF, and 10 μM or 50 μM of the peptide consisting of an amino acid sequence of SEQ ID NO: 1 or 2 were performed and cultured for 30 minutes. Then, the cells were collected to prepare cell lysate. Then, western blotting was performed using P-MAPK (p-Erk, p-JNK, p-p38) and p-Akt antibody (Santacruz Biotechnology, USA).

Procollagen1a = Procollagen1a ELISA; assay type: cell-based, mouse; conditions: for Pro-collagen1a protein expression (result in words): NIH3T3, 72 hours, ELISA; for Procollagen1a expression (%): NIH3T3 medium, 72 hours, control = 100
Method: Mouse fibroblast NIH3T3 was seeded in a 6-well plate at a density of 5×10^3 cells/well, and then cultured overnight. Subsequently, the media were changed to 0.05% FBS-containing media, followed by culturing for 4 hours. Then, treatment with the positive control, i.e., 100 nM IGF-1, and the peptide consisting of an amino acid sequence of SEQ ID NO: 1, 2, 3, or 4 were performed and cultured for 72 hours. Then, the media were collected. The amount in the medium was measured using Procollagen1a ELISA kit (Usbiological Lifescience, USA).

[3] = system: collagen 1a, fibronectin, and elastin; assay: Expression amount of collagen1a, fibronectin and elastin protein (antibody staining, fluorescence microscope); assay type: cell-based, mouse; conditions: NIH3T3, 24 hours
Method: Mouse fibroblast NIH3T3 was seeded in a 6-well plate at a density of 5×10^3 cells/well, and then cultured overnight. Subsequently, the media were changed to 0.05% serum-free media. Then, treatment with the positive control, i.e., 100 nM EGF, and the peptide consisting of an amino acid sequence of SEQ ID NO: 1 or 2 were performed and cultured for 24 hours. Then, the cells were fixed for 30 minutes using 4% paraformaldehyde. Then, after washing 3 times, the cells were reacted with 0.5% Triton X-100 for 15 minutes and washed again 3 times. Then, 3% BSA was blocked for 1 hour and the primary antibody (1:100) for collagen 1a, fibronectin, and elastin was reacted overnight at 4° C. Then, the secondary antibody (1:500) was reacted at room temperature for 2 hours, stained with DAPI staining, and observation was made with a fluorescence microscope.

Row | Substance | mRNA expression of collagen, fibronectin and elastin (result in words) [1] | Fibroblast proliferation (result in words) (Mouse fibroblast NIH3T3) | Fibroblast proliferation (%) (Mouse fibroblast NIH3T3; peptide 10 μM) | Fibroblast proliferation (%) (Mouse fibroblast NIH3T3; peptide 50 μM) | Phosphorylation of MAPK and AKT in fibroblasts (result in words) [2] | HA expression (result in words) (HA; HaCaT, ELISA) | HA expression (HA; peptide 10 μM) | HA expression (HA; peptide 50 μM) | Keratinocyte proliferation (%) (Human keratinocyte HaCaT; peptide 10 μM) | Keratinocyte proliferation (%) (Human keratinocyte HaCaT; peptide 50 μM) | AQP3 expression (result in words) (AQP3) | Phosphorylation of MAPK in keratinocytes (result in words) (ERK and p38) | Pro-collagen1a protein expression (result in words) (Procollagen1a) | Procollagen1a expression (%) (Procollagen1a; peptide 10 μM) | Procollagen1a expression (%) (Procollagen1a; peptide 50 μM) | Protein expression of collagen, fibronectin and elastin (result in words) [3] | HA expression (HA; positive control 100 nM) | Procollagen1a expression (%) (Procollagen1a; positive control 100 nM) | Keratinocyte proliferation (%) (Human keratinocyte HaCaT; positive control 10 nM) | Fibroblast proliferation (%) (Mouse fibroblast NIH3T3; positive control 100 nM)
1 | ILGRWCG [SEQ ID NO: 2] | increasing expression of mRNA of collagen, fibronectin, and elastin | promote fibroblast proliferation | 188% | 253% | activation of MAPK (ERK, p38, and JNK) and AKT | increasing HA expression | 286 ng/mL | 292 ng/mL | 111% | 119% | increasing AQP3 expression | activation of ERK and p38 | expression of pro-collagen1a protein was found to increase | 145% | 146% | increasing expression of proteins of collagen, fibronectin, and elastin |  |  |  | 
2 | KWGGGRY [SEQ ID NO: 1] | increasing expression of mRNA of collagen, fibronectin, and elastin | promote fibroblast proliferation | 170% | 194% | activation of MAPK (ERK, p38, and JNK) and AKT |  |  |  | 120% | 136% | increasing AQP3 expression | activation of ERK and p38 | expression of pro-collagen1a protein was found to increase | 98% | 157% | increasing expression of proteins of collagen, fibronectin, and elastin |  |  |  | 
3 | GPVH [SEQ ID NO: 3] | increasing expression of mRNA of collagen, fibronectin, and elastin | promote fibroblast proliferation | 194% | 261% | activation of MAPK (ERK, p38, and JNK) and AKT |  |  |  | 183% | 197% |  |  | expression of pro-collagen1a protein was found to increase | 138% | 143% |  |  |  |  | 
4 | IGF-1: positive control, 100 nM IGF-1, in the ELISA and RT-PCR tests [reference compound] |  |  |  |  |  |  |  |  |  |  |  |  |  |  |  |  | 280 ng/mL | 113% and 140% |  | 
5 | EGF: positive control, 10 nM EGF, in the keratinocyte tests [reference compound] |  |  |  |  |  |  |  |  |  |  |  |  |  |  |  |  |  |  | 187% and 142% and 152% | 
6 | bFGF: positive control, 100 nM bFGF, in the fibroblast tests [reference compound] |  |  |  |  |  |  |  |  |  |  |  |  |  |  |  |  |  |  |  | 386% and 279% and 400%
7 | EDEFKPPAAGR [SEQ ID NO: 4] | increasing expression of mRNA of collagen, fibronectin, and elastin | promote fibroblast proliferation | 114% | 193% | activation of MAPK (ERK, p38, and JNK) and AKT |  |  |  | 113% | 142% |  |  | expression of pro-collagen1a protein was found to increase | 122% | 141% |  |  |  |  | 
